# Results published in patent US9110076B2, “Method for quantifying modified peptides” (HVIVO SERVICES LIMITED, priority 2009, dated 2015).
# Experiments:
# [1] = system: AML-193; experiment: Sensitivity of AML cell lines to drug treatment (MTS assay); type: cell-based; details: 72 h
# Protocol: (§1) Sensitivity of AML cell lines to drug treatment. Eight cell lines (AML-193, CMK, CTS, HEL, Kasumi-1, KG-1, MV4-11 and P31/FUJ) were seeded in 96 well plates at 1×10^5 cell/ml in triplicate for each condition. After a recovery period of 2 h, cells were treated with increasing concentrations (1 nM, 10 nM, 100 nM, 1 μM and 10 μM) of FLT3 inhibitor, MEK I inhibitor, JAK I inhibitor, LY294002, PI-103 and IC87114. As controls, cells were both treated with the vehicle (DMSO) and left untreated. After 72 hours treatment, cell viability was assessed by MTS assay (CellTiter 96® AQueous One Solution Cell Proliferation assay, Promega Corporation, Madison, Wis., USA).
# [2] = system: HEL; experiment: as above; type: cell-based; details: 72 h
# Protocol: as §1
# [3] = system: MV4-11; experiment: as above; type: cell-based; details: 72 h
# Protocol: as §1
# [4] = system: P31/FUJ; experiment: as above; type: cell-based; details: 72 h
# Protocol: as §1
# [5] = system: NIH-3T3 fibroblasts; experiment: TIQUAS quantification of phosphorylation sites in starved, serum-stimulated cells with or without wortmannin pre-incubation; type: cell-based, murine; details: of 2,350 phosphorylated peptides quantified; WM treatment of cells prior to serum stimulation; 4 experiments
# Protocol: The novel quantitative techniques of the invention were used to quantify phosphorylation sites in NIH-3T3 fibroblasts, which were starved and then stimulated with serum with or without pre-incubation with the pan-PI3K inhibitor wortmannin (WM). These experiments were performed 4 times. […] Cells were treated as indicated, lysed with a urea-based buffer to obtain nuclear as well as cytosolic proteins and proteins digested. Resultant phosphorylated peptides were enriched by IMAC and TiO2 chromatography and quantified by LC-MS using a computer program developed by the inventors ([…]) (Cutillas and Vanhaesebroeck, Molecular & Cellular Proteomics 6, 1560-1573 (2007)). FIG. 2(B) gives a summary of the data obtained and a snapshot of the data sorted by probability.
smiles,measurement,setting,value
CC(C)(C)c1nc2c3cc[nH]c(=O)c3c3cc(F)ccc3c2[nH]1 [JAK I],sensitivity of cell line to inhibitor (survival by MTS assay),[1],sensitive
same,sensitivity of cell line to inhibitor (survival by MTS assay),[2],resistant
Oc1cccc(-c2nc(N3CCOCC3)c3oc4ncccc4c3n2)c1 [PI-103],sensitivity of cell line to inhibitor (survival by MTS assay),[3],sensitive
same,sensitivity of cell line to inhibitor (survival by MTS assay),[4],resistant
"COC[C@H]1OC(=O)c2coc3c2[C@@]1(C)C1=C(C3=O)[C@@H]2CCC(=O)[C@@]2(C)C[C@H]1OC(C)=O [WM, wortmannin]",phosphorylated peptides significantly (p<0.05) affected by WM treatment,[5],265
